Assay results from PMC2888690 (Journal of combinatorial chemistry, 2009).
Where “and” joins values, the source holds several entries; their conditions need not be identical. Equal values may be shown once. Read-outs that look alike come from different tables or passages of the source.

Columns and labels:
[1] = test system: Bacillus anthracis Sterne; assay: microbe, parasite or virus in culture; assay type: cell-based
[2] = test system: Bacillus anthracis Sterne; assay: microbe, parasite or virus in culture; assay type: cell-based; remark: listed apart in the source

Compound: O=C(Nc1ccc(NS(=O)(=O)c2ccc(Cl)c(Cl)c2)cc1)Nc1ccc([N+](=O)[O-])cc1 [5{1}, 3,4-Dichloro-(N-(4-(((4-nitrophenyl)amino)carbonyl)aminophenyl))benzenesulfonamide]
- MIC ([1]; 5 h, read-out: LB MIC): 2.8 µM and 1.3 µg/mL
- MIC ([1]; read-out: LB B.a. MIC): 2.8 µM and 1.3 µg/mL
- MIC ([2]; 5 h, read-out: MH MIC): 3.8 µM and 1.8 µg/mL
- MIC ([2]; read-out: MH B.a. MIC): 3.8 µM and 1.8 µg/mL

Compound: Nc1ccc(S(=O)(=O)Nc2ccc(NC(=O)Nc3ccccc3[N+](=O)[O-])cc2)cc1 [compound 9, 4-Amino-(N-(4-(((2-nitrophenyl)amino)carbonyl)aminophenyl))benzenesulfonamide]
- MIC ([1]; 5 h, read-out: LB MIC): 120 µM and 53 µg/mL

Compound: O=C(Nc1ccc(NS(=O)(=O)c2ccc(Cl)c(Cl)c2)cc1)Nc1ccccc1[N+](=O)[O-] [5{3}, 3,4-Dichloro-(N-(4-(((2-nitrophenyl)amino)carbonyl)aminophenyl))benzenesulfonamide]
- MIC ([1]; 5 h, read-out: LB MIC): > 240 µM and > 115 µg/mL
- MIC ([1]; read-out: LB B.a. MIC): > 240 µM and > 115 µg/mL

Compound: O=C(Nc1ccc(NS(=O)(=O)c2ccc(Cl)c(Cl)c2)cc1)Nc1cccc([N+](=O)[O-])c1 [5{2}, 3,4-Dichloro-(N-(4-(((3-nitrophenyl)amino)carbonyl)aminophenyl))benzenesulfonamide]
- MIC ([1]; 5 h, read-out: LB MIC): > 240 µM and > 115 µg/mL
- MIC ([1]; read-out: LB B.a. MIC): > 240 µM and > 115 µg/mL
